Data on five compounds can be found in publication PMC3557573 (Cancer chemotherapy and pharmacology, 2012).

“And” between values parts separate entries of the source, which are not always exact repeats. Equal values may be shown once. Read-outs that look alike come from different tables or passages of the source. Where only a bound is given, the exact number is not on record here.

For data set [1] the following is noted: cited from earlier work.
A short description of data set [2]: Plasma protein binding, Rapid Equilibrium Dialysis. The data set is classed as in vitro ADME. (In general: Equilibrium dialysis compares concentrations on both sides of a semipermeable membrane.)
A short description of data set [3]: Urinary and fecal excretion. Conditions: for metabolite excreted in urine, % of dose: assuming equivalent UV absorption.
Data set [4] in a line: Partial mass balance of kb-NB142-70. It is filed as in vivo, mouse. Conditions: 5 min.
The test system of data set [5] is CFPAC-1 pancreatic cancer cells. Put plainly: MTT assay, in vitro cytotoxicity. The data set is classed as cell-based, human. Conditions: CFPAC-1, 72 h. In general terms: Tetrazolium assays rely on reduction of a dye to a coloured formazan, in cell work by metabolically active cells.
The nature of data set [6]: β-glucuronidase treatment of urine. Conditions: 0-6 h urine, 37 °C, 24 h, 10,000 units. It is filed as in vitro ADME, mice.
Another data set concerns all 3 PKD isoforms. Conditions: cited from earlier work.
Data set [7] is classed as in vivo, C.B.-17 SCID mice.
The test system of data set [8] is PC-3 human androgen-independent prostate cancer cells. Conditions: PC-3 ref 34; cited from earlier work.
Another data set deals with PC-3 xenografts. Put plainly: Efficacy study in mice bearing PC-3 xenografts. The data set is classed as in vivo, C.B.-17 SCID mice. Conditions: 25 mg/kg/day iv qdx5, PC-3 xenografts.
In data set [9] the test system is PC-3 human androgen independent prostate cancer cells. Put plainly: MTT assay, in vitro cytotoxicity. Conditions: PC-3, 72 h. The data set is classed as cell-based.
The subject of data set [10] is PANC-1 pancreatic cancer cells. The experiment in a line: MTT assay, in vitro cytotoxicity. The data set is classed as cell-based, human. Conditions: PANC-1, 72 h.
The next data set relates to CFPAC-1 xenografts. Put plainly: Efficacy study in mice bearing CFPAC-1 xenografts. The data set is classed as in vivo, C.B.-17 SCID mice.
Data set [11] has as its system PANC-1 pancreatic cancer xenograft. Conditions: po 80 mg/kg qd × 21 ref 31; cited from earlier work.
Setting [12] is: day 6, 50 mg/kg q3dx3, CFPAC-1 xenografts.

With `COc1ncc2sc3c(c2n1)SCCNC3=O` [kmg-NB4-23], the aqueous solubility entry in data set [1] is listed as “poor”.
By IC50 is commonly meant the concentration at which inhibition is half-maximal. By clearance is commonly meant a measure of how efficiently the substance is removed, as volume per time. Lower therefore signals a low capacity for elimination. The Cmax is the highest concentration seen after dosing. For orientation: EC50 means the concentration needed to bring the measured effect to its halfway point. In data set [2] (0.3 μg/mL), `O=C1NCCSc2c1sc1ccc(O)cc21` [kb-NB142-70] had a plasma protein bound of 78%. Further, the plasma protein bound in data set [2] (3 μg/mL) was found to be 78%. In data set [3] (0-6 h urine), the “urinary excretion of parent, % of dose” value amounted to 2.5% and the “metabolite excreted in urine, % of dose” value is given as “approximately 7.6%”. Moreover, in data set [3] (6-24 h urine), the “urinary excretion of parent, % of dose” value is recorded as 0.1% and the “metabolite excreted in urine, % of dose” value is given as about 1.2%. Also, in data set [3] (mouse, in vivo), the “fecal excretion, % of dose” value was 0.67%. In addition, the “administered dose detectable in plasma and collected tissues as parent compound” value in data set [4] is 12.5%. Further, in data set [4] (parent plus metabolite), the “total administered dose detectable in plasma and collected tissues” value is 13.6 % of the dose. For the same compound, the IC50 in [5] was determined as 5.2 ± 0.1 µM. The “increase in parent on incubation of urine with β-glucuronidase” value in [6] is ~ 410%. Besides, in the data set on all 3 PKD isoforms, the “potency relative to CID755673” value is at least 2 fold. In data set [7] (25 mg/kg iv), the “AUC0→∞ Brain” value stood at 85 nmol·min/g, the “AUC0→∞ Fat” value amounted to 1681 nmol·min/g, the “AUC0→∞ Heart” value came to 236 nmol·min/g and the “AUC0→∞ Kidney” value is given as 1712 nmol·min/g. Besides, in [7] (25 mg/kg iv), the “AUC0→∞ Liver” value is reported as 266 nmol·min/g, the “AUC0→∞ Lung” value is listed as 377 nmol·min/g, the “AUC0→∞ Plasma” value stood at 409 nmol·min/mL and the “AUC0→∞ RBC” value was determined as 288 nmol·min/mL. Also, in data set [7] (25 mg/kg iv), the “AUC0→∞ Skeletal Muscle” value is listed as 748 nmol·min/g, the “AUC0→∞ Spleen” value turned out to be 288 nmol·min/g, the “AUC0→∞ Tumor” value stood at 731 nmol·min/g and the AUC for plasma was found to be 409 nmol·min/mL. In [7] (25 mg/kg iv), this compound had an AUC for tumor of 731 nmol·min/mg, an AUC in fat of 1681 nmol·min/g, a clearance of 243 mL/min/kg and a plasma half-life of 6 min. In data set [7] (25 mg/kg iv), the volume of distribution entry is recorded as “approximately 2744 mL/kg”. Besides, in [7] (25 mg/kg iv, at 5 min), the “kidney Cmax” value came to 63 nmol/g and the “lung Cmax” value is 27 nmol/g. In addition, in [7] (25 mg/kg iv, observed at 10 min), the “PC-3 xenograft (tumor) Cmax” value is 11.8 nmol/g and 12 nmol/g. Further, the “blood brain barrier crossing” value in [7] (25 mg/kg iv, brain concentrations lower than plasma) was “appeared to cross the blood brain barrier”. In data set [7] (5 min after 25 mg/kg iv), this compound had a Brain concentration of 6.34 ± 1.72 nmol/g, a Fat concentration of 9.92 ± 0.52 nmol/g, a Heart concentration of 14.5 ± 2.0 nmol/g and a Kidney concentration of 63.4 ± 13.7 nmol/g. Moreover, in data set [7] (5 min after 25 mg/kg iv), the Liver concentration is 23.4 ± 1.1 nmol/g, the Lung concentration was 26.8 ± 3.3 nmol/g, the Plasma concentration is 36.9 ± 8.3 µM and the RBC concentration amounted to 23.6 ± 1.7 nmol/mL. In [7] (5 min after 25 mg/kg iv), the “Skeletal Muscle concentration” value is 18.4 ± 4.6 nmol/g, the Spleen concentration was 21.2 ± 3.8 nmol/g and the Tumor concentration came out at 5.62 ± 1.63 nmol/g. In [7] (10 min after 25 mg/kg iv), this compound showed a Brain concentration of 5.07 ± 0.57 nmol/g, a Fat concentration of 8.93 ± 1.71 nmol/g, a Heart concentration of 13.1 ± 2.5 nmol/g and a Kidney concentration of 48.9 ± 15.8 nmol/g. Besides, in data set [7] (10 min after 25 mg/kg iv), the Liver concentration was 6.41 ± 0.56 nmol/g, the Lung concentration came out at 16.7 ± 1.2 nmol/g, the Plasma concentration is 23.4 ± 7.4 µM and the RBC concentration came to 13.2 ± 2.7 nmol/mL. In addition, in [7] (10 min after 25 mg/kg iv), the “Skeletal Muscle concentration” value came out at 15.5 ± 4.0 nmol/g, the Spleen concentration was found to be 12.6 ± 2.5 nmol/g and the Tumor concentration came out at 11.8 ± 4.0 nmol/g. In data set [7] (15 min after 25 mg/kg iv), this compound registered a Brain concentration of 2.40 ± 0.40 nmol/g, a Fat concentration of 6.65 ± 0.74 nmol/g, a Heart concentration of 6.23 ± 1.96 nmol/g and a Kidney concentration of 27.0 ± 12.4 nmol/g. In data set [7] (15 min after 25 mg/kg iv), the Liver concentration amounted to 8.41 ± 0.29 nmol/g, the Lung concentration is 10.4 ± 4.9 nmol/g, the Plasma concentration stood at 10.3 ± 3.7 µM and the RBC concentration is 6.94 ± 2.26 nmol/mL. In data set [7] (15 min after 25 mg/kg iv), the “Skeletal Muscle concentration” value turned out to be 9.45 ± 2.47 nmol/g, the Spleen concentration was found to be 8.03 ± 3.39 nmol/g and the Tumor concentration amounted to 5.22 ± 3.60 nmol/g. In data set [7] (30 min after 25 mg/kg iv), this compound returned a Brain concentration of 0.84 ± 0.11 nmol/g, a Fat concentration of 2.80 ± 0.45 nmol/g, a Heart concentration of 2.60 ± 0.53 nmol/g and a Kidney concentration of 10.1 ± 2.0 nmol/g. Besides, in [7] (30 min after 25 mg/kg iv), the Lung concentration came to 2.95 ± 1.69 nmol/g, the Plasma concentration was 2.0 ± 1.9 µM, the RBC concentration turned out to be 2.31 ± 1.70 nmol/mL and the “Skeletal Muscle concentration” value is 2.28 ± 0.56 nmol/g. Besides, in [7] (30 min after 25 mg/kg iv), the Tumor concentration was found to be 4.22 ± 1.92 nmol/g. Also, in data set [7] (60 min after 25 mg/kg iv), the Fat concentration was 2.62 ± 1.35 nmol/g, the Kidney concentration was 2.87 ± 0.56 nmol/g, the “Skeletal Muscle concentration” value came to 1.05 ± 0.02 nmol/g and the Tumor concentration is 1.24 ± 0.95 nmol/g. Further, in data set [7] (120 min after 25 mg/kg iv), the Fat concentration is 0.77 ± 0.13 nmol/g, the Kidney concentration is 3.76 ± 0.82 nmol/g, the “Skeletal Muscle concentration” value worked out at 0.95 ± 0.01 nmol/g and the Tumor concentration came to 0.79 ± 0.32 nmol/g. In data set [7] (240 min after 25 mg/kg iv), the Fat concentration was determined as 0.45 ± 0.06 nmol/g, the Kidney concentration turned out to be 1.78 ± 0.29 nmol/g, the “Skeletal Muscle concentration” value turned out to be 1.00 ± 0.01 nmol/g and the Tumor concentration was 0.57 ± 0.60 nmol/g. Further, in data set [7] (360 min after 25 mg/kg iv), the Fat concentration was 0.36 ± 0.03 nmol/g, the “Skeletal Muscle concentration” value came out at 0.97 ± 0.06 nmol/g and the Tumor concentration worked out at 1.21 ± 0.78 nmol/g. Moreover, the Fat concentration in data set [7] (960 min after 25 mg/kg iv) came to 0.85 ± 0.42 nmol/g. The same compound displayed a Fat concentration in data set [7] (1440 min after 25 mg/kg iv) of 0.44 ± 0.07 nmol/g. Moreover, the highest concentration (Cmax) in data set [7] (read-out: Plasma Cmax, 25 mg/kg iv, observed at 5 min) was 36.9 µM and 37 µM. Further, the EC50 in [8] was 8 µM. In the data set with PC-3 xenografts, the “effect on the growth of the tumor xenografts” value was “no effect” and the “toxicity or changes in body weights” value is reported as “did not result in any toxicity or changes in the body weights”. In [9], this compound had an IC50 of 21 ± 6 µM. Further, the 50% inhibitory concentration (IC50) in data set [10] worked out at 34 ± 7 µM.
For `Nc1ccn([C@@H]2O[C@H](CO)[C@@H](O)C2(F)F)c(=O)n1` [gemcitabine], in the data set with CFPAC-1 xenografts (50 mg/kg q3dx3, CFPAC-1 xenografts, control 2.2 days), the tumor doubling time was 10.4 days. For the same compound, in the data set with CFPAC-1 xenografts (setting [12]), the “T/C of mean tumor volume” value worked out at 22% and the mean tumor volume is given as 335 mm^3.
Regarding `O=C1NCCCc2c1oc1ccc(O)cc21` [CID755673, reference compound], the concentration for half-maximal inhibition (IC50) in the data set on all 3 PKD isoforms (against all 3 PKD isoforms ref 33) is 0.2 to 0.3 µM.
For `CC[C@@H](N)CNc1ccnc(-c2cc(-c3cnn(C)c3)ccc2O)n1.Cl.Cl` [CRT0066101], in [11], the “growth of PANC-1 xenograft” value is given as “slowed the growth”.
